Data as given in US4055640A, “Compositions and methods for controlling the growth of bacteria, fungi and algae using certain derivatives of N-(2,2-dichlorovinyl)salicylamides” (Nippon Kayaku Co., Ltd., priority 1975, dated 1977).

Key:
[1] = system: bacteria gathered from circular water system; test: Degree of propagation on slime test boards (Example 27); assay type: cell-based; conditions: shaking culture for 2 days
Protocol: (§1) Zero point zero two (0.02) part of active compounds in the form of 10% water soluble concentrate which was prepared by Example 23 was added into 100 parts of Waxman's liquid medium. Peices of Wood iron (hereafter referred to as the slime test boards) were soaked into the Waxman's liquid medium. The bacteria which were gathered from circular water system were inoculated upon the Waxman's liquid medium and incubated at 27°-34° C by shaking culture for 2 days. The degree of propagation of the bacteria on the slime test boards was examined.
(§2) Thegrowth-inhibiting activity of active compounds against the fungi and the green algae was also examined by the same method as mentioned above.
(§3) The degree of propagation of the bacteria, fungi or green algae on the test boards is defined in terms of the following symbols.

green algae = test: as above; assay type: cell-based; conditions: same method, shaking culture for 2 days
Protocol: as §1, §2, §3

fungi = test: as above; assay type: cell-based; conditions: same method, shaking culture for 2 days
Protocol: as §1, §2, §3

[2] = system: Aspergillus niger, Penicillium citrinum, Cladosporium harbarum and chaetomium globosum; test: Degree of growth inhibition of fungi on treated beach plates (Example 25); assay type: cell-based; design: scale not given here; conditions: numerical rating, 2 weeks
Protocol: The emulsifiable concentrates which were prepared by Example 20 were diluted with water 400 times and 800 times to form emulsions.
The square plates of beach of which a side was 5 cm long and thickness was 5 mm were dipped into the emulsion for 2 minutes and dried for 24 hours at room temperature.
The square plates were placed on the surface of agar plates. The suspensions which contained spores of Aspergillus niger, Penicillium citrinum, Cladosporium harbarum and chaetomium globosum were respectively sprayed on the agar plates and the square plates.
The test fungi were cultivated in the incubator at the humidity of 95% and the temperature of 28° C for 2 weeks. The degree of growth inhibition is defined in terms of the following numerical ratings.

[3] = system: seedling blight of rice plant (pathogen Fusarium sp. and Rhizoctonia sp.); test: Exterminating test on seedling blight of rice plant (Experimental Example 1); assay type: in vivo; conditions: soil, 408 h, 0.25g/box a.i., 5% dust mixed with soil; read-out: Percentage of healthy seedlings
Protocol: Exterminating test on seedling blight of rice plant Nursery boxes (60 × 30 × 3 cm) were filled with soil which were contaminated with pathogen (Fusarium sp. and Rhizoctonia sp.) The dust in which the present compound was contained in a ratio of 5% by weight was added in the box in a ratio of 5 grams per box and mixed well with soil. Thereafter, seeds of rice plant (variety: Nihonbare) were sowed in drills at a rate of 0.3 liter per box and grown up in a lighting chamber at 17° C. After 7 days from the sowing, the boxes were carried out in the field. Furthermore, 10 days thereafter the observations were made. Four percent (4%) dust of 3-hydroxy-5-methyl isoxazol (hereinafter referred to as hydroxyisoxazol) on the market was used as a control and tested by the same method. The test results are shown in Table 2 with a "percentage of healthy seedlings". The percentage of healthy seedlings was calculated as follows: […]

[4] = system: Cladosporium cucumerinum (cucumber scab); test: Exterminating test on cucumber scab (Experimental Example 2); assay type: in vivo; design: scale not given here; conditions: 500 ppm, 5 days after inoculation
Protocol: Exterminating test on cucumber scab
(§4) The cucumber seeds (variety: Sagamihanjiro) were sown in pots (diameter 18 cm). Eighty percent (80%) wettable powder (contents of active compound: 80%) of the present invention was diluted with water to obtain a suspension. The suspension was sprayed over the cucumber seedlings of the stage of 3-4 leaves in an amount of 20 ml per pot. After 24 hours, these pots were inoculated by means of spray of spore suspension of Cladosporium cucumerinum. The thus-inoculated seedlings were placed in a moist chamber at 20° C for 24 hours. The pots were continuously kept in a greenhouse at 20° C. The following wettable powders on the market were used as controls.
70% wettable powder of 1,2-bis (3-methoxy carbonyl-2-thioureid) benzene (hereinafter referred to as "thiophanate methyl") on the market.
75% wettable powder of ethylene bis (dithiocarbamic acid) manganese (hereinafter referred to as "maneb") on the market. After 5 days of the inoculation, degrees attached by the pathogen were observed and the results were shown in Table 3 with an "Infected Index". The "Infected Index" was calculated as follows: [formula] A : Number of leaves which were killed by hard attack B : Number of leaves severely attacked
C : number of leaves slightly attacked
D : number of healthy leaves

Aspergillus niger [5] = test: Region of growth-inhibition around treated cotton cloth (Example 26); assay type: cell-based; conditions: emulsifiable concentrate diluted 100 times
Protocol: (§5) The emulsifiable concentrates which were prepared by Example 20 were diluted with water 100 times to form an emulsion. A cloth of cotton was soaked into each emulsion for 2 minutes. The clothes were dried at room temperature and cut into a square of which a side was 1 cm long. Each kind of test bacteria and fungi was inoculated, separately, on plates of potato-agar and one square cloth placed on each of such plates. Test bacteria and fungi were cultivated at 28° C for 4 days. The width of the region of growth-inhibition which was formed a circumference of the cloth was measured.

Penicillium Citrinum [6] = test: as above; assay type: cell-based; conditions: emulsifiable concentrate diluted 100 times
Protocol: as §5

Bacillus subtilis [7] = test: as above; assay type: cell-based; conditions: emulsifiable concentrate diluted 100 times
Protocol: as §5

Staphylococcus oureus = test: as above; assay type: cell-based; conditions: emulsifiable concentrate diluted 100 times
Protocol: as §5

[8] = system: cucumber seedlings (variety: Sagamihanjiro); test: Phytotoxicity on cucumber seedlings (Experimental Example 2); assay type: in vivo; conditions: 500 ppm
Protocol: as §4

[9] = system: botrytis cinerea (gray mold); test: Exterminating test on gray mold of tomato (Experimental Example 5); assay type: in vivo; design: scale not given here; conditions: 1,000 ppm, 48 hours after inoculation, kidney bean leaves
Protocol: Exterminating test on gray mold of tomato The seedlings of kidney beans (variety: Orient) of 5-6 leaves stage were employed in this test. Eighty percent (80%) wettable powder of the present invention was diluted with water and sprayed over the seedlings in an amount of 10 ml per pot. The leaves were cut from the plant at 24 hours after spraying, and placed in the petri dishes (12 cm in diameter). Thereafter disks (5 mm in diameter) were cut with a cork borer from potato dextrose agar on which the pathogen (botrytis cinerea) was cultured. The disks were placed on the leaves. The dishes were placed in such a moistural condition as to cause the pathogen to propagate. Thiophanate methyl 70% wettable powder on the market was used as a control and tested by the same method. After forty eight (48) hours after inoculation, diameters of the lesions were observed, and an "Effect Index" was calculated as follows; [formula]

summer orange seedlings = test: Phytotoxicity on summer orange seedlings (Experimental Example 6); assay type: in vivo; conditions: 1,000 ppm
Protocol: (§6) Exterminating test on citrus canker. 4-year-old summer orange seedlings, planted in unglazed pots having a diameter of 20 cm, were employed in this test. Eighty percent (80%) wettable powder of the present invention was diluted with water, and sprayed over the seedlings in an amount of 50 ml per pot. The leaves of the seedlings were inoculated Xanthomonas citri by means of a needle. After the inoculation, the seedlings were maintained in a moist chamber at 25° C for 24 hours. Then the pots were transferred into the greenhouse. Streptomycin 20% wettable powder was used as a control, and tested by the same method. After 2 weeks after the inoculation, degrees of disease attack were observed, and an "Effect Index" was calculated as follows: [formula]

[10] = system: seedlings of kidney beans (variety: Orient); test: Phytotoxicity on kidney beans (Experimental Example 5); assay type: in vivo; conditions: 1,000 ppm
[11] = system: Rhizoctonia solani (damping-off of cucumber); test: Exterminating test on damping-off of cucumber (Experimental Example 3); assay type: in vivo; conditions: 1,000 ppm, soil drench 50 ml per pot, 10 days
Protocol: Exterminating test on damping-off of cucumber
The pots (diameter, 12 cm) were filled with field soil and then soil infected by adding Rhizoctonia solani in an amount of 5 grams per pot uniformly into the pots. Thereafter, 10 seeds of cucumber (variety: Azumamidori) were sown in each pot.
Eighty percent (80%) wettable powder of the present invention was diluted with water to obtain a suspension and each pot was drenched with the suspension in an amount of 50 milliliters. Then, the pots were transferred to the greenhouse. Fifty percent (50%) wettable powder of pentachloronitro benzene (hereinafter referred to as PCNB) on the market was used as a control and tested by the same method. After 10 days of the inoculation, degrees attacked by the pathogen were observed and a "Percentage of healthy seedlings" was calculated. The "Percentage of healthy seedlings" was calculated as follows: [formula]

[12] = system: Xanthomonas citri (citrus canker); test: Exterminating test on citrus canker (Experimental Example 6); assay type: in vivo; conditions: 1,000 ppm, 2 weeks after inoculation
Protocol: as §6

Staphylococcus aureus = test: Minimum inhibitory amount, dilution methods (Example 24); assay type: cell-based; conditions: (2) glucose bouillon medium dilution method
From the text: (§7) Bactericidal activity and fungicidal activity of the active compounds of the present invention were examined by potato-dextrose agar dilution method, or [2] glucose bouillon medium dilution method. The results are shown in Table 10 below as the minimum inhibitory concentration (the minimum concentration of active compound found to produce 100% control of the test bacteria and fungi).

Aspergillus niger [13] = test: as above; assay type: cell-based; conditions: (1) potato-dextrose agar dilution method
From the text: as §7

Penicillium Citrinum [14] = test: as above; assay type: cell-based; conditions: (1) potato-dextrose agar dilution method
From the text: as §7

Bacillus subtilis [15] = test: as above; assay type: cell-based; conditions: (2) glucose bouillon medium dilution method
From the text: as §7

Cladosporium harbarum = test: as above; assay type: cell-based; conditions: (1) potato-dextrose agar dilution method
From the text: as §7

Escherichia coli = test: as above; assay type: cell-based; conditions: (2) glucose bouillon medium dilution method
From the text: as §7

[16] = system: Fusarium wilt of cucumber; test: Exterminating test on Fusarium wilt of cucumber (Experimental Example 4); assay type: in vivo, Fusarium oxysporum f, cucumerinum; conditions: 500 ppm, soil drench 100 ml per pot, two weeks
Protocol: Exterminating test on Fusarium wilt of cucumber Twenty (20) grams of infected soil was added uniformly into each pot which was filled with steam sterilized field soil, then 18 seeds of cucumber (variety; Tokiwazibai) were sowed in each pot. Eighty percent (80%) wettable powder of the present invention was diluted with water to obtain a suspension, and each pot was drenched with the suspension in an amount of 100 ml. Fifty percent (50%) wettable powder of methyl-1-(butylcarbamoyl) 2-benzimidazol carbamate (hereinafter referred to as Benlate) on the market was used as a control and tested by the same method. After two weeks of planting, degrees attacked by the pathogen was observed and a "percentage of healthy seedlings" was calculated as follows: [formula]

SMILES | Degree of propagation (green algae) | Degree of growth inhibition ([2]; 0.0125 %) | Degree of growth inhibition ([2]; 0.025 %) | Infected Index [4] | width of the region of growth-inhibition (Aspergillus niger [5]) [mm] | width of the region of growth-inhibition (Penicillium Citrinum [6]) [mm] | width of the region of growth-inhibition (Bacillus subtilis [7]) [mm] | width of the region of growth-inhibition (Staphylococcus oureus) [mm] | Phytotoxicity [8] | Phytotoxicity (summer orange seedlings) | also measured
O=C(NC=C(Cl)Cl)c1cc(Cl)ccc1O [Compound No. 2, N-(2',2'-dichlorovinyl)-5-chlorosalicylamide] | - | 2 | 3 | 11.0 | 5 | 5 | 9 | 10 | Nil | Nil | Degree of propagation [1]: -; Degree of propagation (fungi): -; Percentage of healthy seedlings at 0.25 g/box [3]: 72.4%; Effect Index [9]: 79; Phytotoxicity [10]: Nil
O=C(NC=C(Cl)Cl)c1cc(Br)ccc1[O-].O=C(NC=C(Cl)Cl)c1cc(Br)ccc1[O-].[Zn+2] [compound 25] | + (the area of propagation is 1-25% on the slime test boards.) | 2 | 3 | 12.1 | 6 | 5 | 6 | 6 | Nil | Nil | Percentage of healthy seedlings [11]: 80%; Effect Index [12]: 80.6; Minimum inhibitory amount (Staphylococcus aureus): 5 µg/mL; Minimum inhibitory amount (Aspergillus niger [13]): 20 µg/mL; Minimum inhibitory amount (Penicillium Citrinum [14]): 20 µg/mL; Minimum inhibitory amount (Bacillus subtilis [15]): 5 µg/mL; Minimum inhibitory amount (Cladosporium harbarum): 10 µg/mL; Minimum inhibitory amount (Escherichia coli): 60 µg/mL; Percentage of healthy seedlings [16]: 49.5%
